# Data taken from patent publication US20190262453A1, “DESIGN AND COMPOSITION OF CELL-STABILIZED PHARMACEUTICAL FORMULATIONS” (THE REGENTS OF THE UNIVERSITY OF MICHIGAN, priority 2016, published 2019).
# Tested on: peritoneal macrophages
# Assay: Peritoneal lavage: cell counts and CLDI-containing cells
# Type: in vivo, Mice
# Settings: PBS-CFZ fed group, peritoneal cavity
# Protocol: In order to deplete tissue macrophages, mice were treated with liposomes containing either 7 mg/mL clodronate or phosphate-buffered saline (PBS) (FormuMax Scientific Inc., Sunnyvale, Calif.) for up to six weeks. Liposomes were injected IP to eliminate macrophages of the liver, spleen, and peritoneal cavity. Mice were initially treated with 200 μL of liposomes, followed by 100 μL injections twice per week to ensure continual depletion of macrophages. Mice were fed CFZ or a control diet continuously for a four week period. Following two weeks of feeding, liposome treatment began for two weeks. After completing four weeks of feeding and two weeks of liposome treatment, the mice were sacrificed and tissues were collected. Following euthanasia, a small incision was made in the lower abdomen. […] The peritoneal lavage was centrifuged for 10 min at 400×g, 4° C,and then resuspended in DMEM media (Life Technologies). The cells were then plated onto 4 or 8 chamber coverglass (#1.5, Lab-Tek II, Nunc, Rochester, N.Y.) for imaging. The cells were allowed to attach overnight and then washed with media.
smiles,measurement,value
"CC(C)N=c1cc2n(-c3ccc(Cl)cc3)c3ccccc3nc-2cc1Nc1ccc(Cl)cc1 [CFZ, 3-(p-chloroanilino)-10-(p-chlorophenyl)-2, 10-dihydro-2-isopropyliminophenazine]",macrophages containing at least one intracellular CLDI,approximately 50%
